One series concerns HSV. Briefly: Virus sensitivity assay (VSA): HSV patient material replicated in HL-cells with antiviral agent, cell disruption, virus antigen by ELISA sandwich technique (Example 1). The class given is cell-based, herpes simplex virus (HSV). The settings on record: disrupted cells, culture of 1 to 3 days. As for the experimental part:
A material from a patient containing living HSV is mixed with a small amount of Eagle's tissue culture medium containing 2% of calf serum, 100 IE penicillin/ml and 100 […] of streptomycin/ml, after which the virus mixture is diluted 1:30 in this medium.
Sterile plastic plates comprising 24 wells, each having a culture surface of 2.5 cm^2 and containing about 5 x 10^5 HL-cells/well were inoculated with 0.1 ml of virus dilutions as above. Such of the above virus dilutions only containing a small amount of virus are first cultured for 3 days in HL-cells, on which virus replicates, after which the virus isolate from one cell passage is taken out, is diluted 1:30 and 0.1 ml of the dilutions is added to the plates as indicated above. The cells are then incubated at a temperature of 32-37°C, with addition of different antiviral agents, and without any addition of antiviral agent to obtain reference values. Each antiviral agent is added in a dilution series comprising six different concentrations (Cl-C6), some of which correspond to desired serum concentrations for the treatment of patients. In table 1 is indicated the antiviral agents and concentrations thereof used.
As a background control of virus replication taking place and for a direct typing of virus 2 cell containing wells/plate are inoculated with a mixture of 0.1 ml virus dilution and 0.05 ml of Brij-58 of 1%.
After a culture of 1 to 3 days the effect of the antiviral agents is then evaluated by measurement with ELISA sandwich technique as described below. However, the cells are treated in the following way before this measurement.
The supernatant is sucked off and in order to achieve cell disrupture 800 µl of distilled water are added to the cells on the plates. The plates are frozen at -20°C and after some time sufficient for formation of ice crystals (about 15 min) the plates are thawed to room temperature for measurement of virus antigen. If desired, the plates can be preserved in a frozen state for a long time before they are thawed in order to carry out the measurement of virus antigen. When the plates have thawed 200 µl of NaCI of 4.5% are added to the cells in order to obtain an isotonic solution.
The amount of virus antigen formed is thereafter determined as follows. Guinea pig anti-HSV-serum is diluted in 0.1-M sodium carbonate buffer. 0.1 ml of the serum dilution is filled per well in microplates (M 29 AR, Dynatech, Zug, Switzerland) which have been washed three times with NaCI-solution of 0.9% containing 0.05% of Tween® 20, after which the plates are incubated for 16 hours at room temperature. The plates can be preserved sealed with their contents at +4°C up to 2-3 months. The optimal antibody concentration has been determined by antibody titration with the respective antigen and control antigen.
0.1 ml of the cell material obtained above or a known virus antigen is filled into plates treated with antibody and is incubated for 4 hours at +4°C. After washing with the washing solution indicated above 0.1 ml of rabbit anti-HSV is added and the plates are incubated for 2 hours at +37°C. The plates are washed and 0.1 ml of conjugate is added, after which they are incubated for 2 hours at +37°C. The conjugate consists of pig anti-rabbit IgG conjugated with alkaline phosphatase (Orion Diagnostica, Helsinki, Finland) in a dilution of 1:100. Non-bonded conjugate is washed off before 100 pl of the substrate p-nitrophenyl phosphate (1 mg/ml, Sigma, St Louis, MO, USA) are added. For dilution of the substrate 1 M diethanol buffer, pH 9.8 containing 0.5 x 10-^3 M MgC12 is used and for dilution of antisera and conjugate phosphate buffer (PBS), pH 7.3-7.4 with 0.5% of Tween® 20, 0.5% of BSA (bovine serum albumin) and 0.02% of NaN3 is used. The reaction is stopped after 20-60 min with 0.025 ml of 5 M NaOH. The absorbance (A) is thereafter read at 405 nm with Titertek Multiskan® (Flow Laboratories, Irvine, Scotland). […]

The conditions of series [1]: concentrations are measured in lachrymal fluid; cited from earlier work.
Setting [2] is: C1: Ara-A 5, ACV 0.15, PFA 25, IDU 0.5 μM, C0 (no agent) 1.425.
The mark [3] stands for this setting: C2: Ara-A 10, ACV 0.31, PFA 50, IDU 1 μM, C0 1.425.
The mark [4] stands for this setting: C3: Ara-A 20, ACV 0.63, PFA 100, IDU 2 μM, C0 1.425.
Where [5] appears, read: C4: Ara-A 40, ACV 1.25, PFA 200, IDU 4 μM, C0 1.425.
Where [6] appears, read: C5: Ara-A 80, ACV 2.5, PFA 400, IDU 8 μM, C0 1.425.
[7] abbreviates: C6: Ara-A 160, ACV 5, PFA 800, IDU 16 μM, C0 1.425.

Each structure is given as a SMILES string.

Consider `Nc1ncnc2c1ncn2C1OC(CO)C(O)C1O` (stereo not shown) [Ara-A, adenosine-arabinoside], for which the “absorbance (A) at 405 nm” value in the series with HSV (setting [2]) was 1.505; in the series with HSV (setting [3]), 1.132; with HSV (setting [4]) it was 1.017; with HSV (setting [5]), 0.892; in the series on HSV (setting [6]), 0.520; with HSV (setting [7]) it was 0.473.

`O=c1[nH]c(=O)n([C@H]2C[C@H](O)[C@@H](CO)O2)cc1I` [IDU, iododeoxyuridine]: the “Serum concentrations used clinically” value in series [1] is reported as 4—400^1 μM or IU/ml. The “absorbance (A) at 405 nm” value in the series with HSV (setting [2]) is 1.011; in the series with HSV (setting [3]) it was 0.847; in the series with HSV (setting [4]) it was 0.671; with HSV (setting [5]) it was 0.536; in the series with HSV (setting [6]) it was 0.344; in the series on HSV (setting [7]) it was 0.298.

The record behind these values is patent publication EP0097633B1, “Determination of the sensitivity of virus to antiviral agents” (Wahren, Britta, priority 1982, dated 1984).
